Test results as given in patent publication US10738093B2, “Discovery of cationic nonribosomal peptides as Gram-negative antibiotics through global genome mining” (The Hong Kong University of Science and Technology, priority 2018, dated 2020).
≈ marks a conversion by molar mass, not a printed value. Positions of bridges follow the written chain, without caps; N, C: chain ends. Non-standard residues stand in square brackets, D forms with d. Residues, ends and D or L forms follow the SMILES beside them. ξ: configuration not given here. *: point of attachment. Hexanoyl(4ξ-Me) = CCC(C)CCC(=O)*; dOrn = NCCC[C@@H](N)C(=O)O; Orn = NCCC[C@H](N)C(=O)O

How the values were obtained:
[1] = system: E. coli ATCC 25922; test: Atomic force microscopy of treated E. coli; assay type: cell-based, Escherichia coli; details: E. coli ATCC25922, 10×MIC
Method: (§1) The samples were then centrifuged at 8000 g for 10 min at 4° C., and the pellet was washed twice in 100 lpL of apyrogenic water. The bacteria resuspended in 50 μL of apyrogenic water were applied to mica disks and dried overnight at 28° C. before imaging. Atomic force micrographs were recorded on a Veeco Mulitmode AFM with NanoScope III controller operating in contact mode. The data were analyzed with NanoScope Analysis software v.1.40 (Veeco, USA). Scans were acquired at 25° C. at the rates of 1.0 Hz and 256 samples per line resolution. Downstream image processing and analysis were performed using NanoScope software (Bruker). Height images were flattened to compensate for cell curvature, and topographical sections were used to generate two-dimensional reconstructions of surface texture.

[2] = system: Escherichia coli ATCC 25922; test: Resistance acquisition during serial passaging; assay type: cell-based; details: serial passaging at subinhibitory concentrations over 30 days
Method: Escherichia coli ATCC 25922 was inoculated into MHB overnight at 37° C. with continuous shaking. Cells were diluted 10,000 times in MHB to about 1×10^6 c.f.u./mL. […] Plates with bacteria were incubated at 37° C. without shaking. […] This process was repeated for 30 d, and the final MIC was confirmed by the same antibacterial assay described above. The experiment was performed in quadruplicate, and on each day, the sample that developed the highest resistance was measured to plot the curve.

[3] = system: K. pneumoniae NRRL-B-3521; assay type: cell-based, Klebsiella pneumoniae; details: NRRL-B-3521
Method: (§2) Minimum inhibitory concentration (MIC) was determined by broth microdilution according to CLSI guidelines. The test medium for most species was Mueller-Hinton broth (MHB). Bacteria were grown overnight to early stationary phase and adjusted in MHB to 5.0×10^5 colony-forming units per mL (c.f.u./mL) in the wells of 96-well microtiter plates, mixed with varying concentrations of test compounds and incubated at 37° C. for 24 h. […] MHBs containing 10% fetal bovine serum (Gibco), 21 mM MgCl, or 1.0 mg/ml LPS (lipopolysaccharides from Escherichia coli O55:B5, Sigma-Aldrich) were used to test their inhibitory effects.

[4] = system: Escherichia coli ATCC 25922; test: microbe, parasite or virus in culture; assay type: cell-based; details: ATCC 25922
Method: as §2

[5] = system: P. aeruginosa PAO1; test: Atomic force microscopy of treated P. aeruginosa; assay type: cell-based, Pseudomonas aeruginosa
Method: as §1

[6] = system: E. coli Top10; assay type: cell-based, Escherichia coli; details: Top10
Method: as §2

[7] = system: Colistin-resistant E. coli (E. coli ATCC 25922 carrying mcr-1); assay type: cell-based, Escherichia coli
Method: as §2

[8] = system: E. coli ATCC 25922; test: Neutropenic mouse thigh infection model; assay type: in vivo, Escherichia coli
Method: In vivo activities of brevicidine and laterocidine were tested using the mouse thigh infection model. Animal studies were performed by Pharmacology Discovery Services Taiwan Ltd. (Taipei, Taiwan) in general accordance with standard guidelines on animal welfare in an AAALAC-accredited facility. The protocol was reviewed and approved by the Institutional Animal Care and Use Committee. Groups of five female specific-pathogen-free ICR (CD-1) mice weighing 22±2 g (˜5 weeks of age) were used. Animals were immunosuppressed with two intraperitoneal injections of cyclophosphamide, the first at 150 mg/kg 4 d before infection (day −4) and the second at 100 mg/kg 1 d before infection (day −1). On day 0, animals were inoculated intramuscularly (0.1 ml/thigh) in the right thigh with an E. coli ATCC 25922 suspension. Vehicle (10% DMSO, 1% Tween 80, 0.9% NaCl) and antibiotics were then subcutaneously injected 2 h and 8 h later. Due to limited amount of compounds 1-2, only one concentration of 1(30 mg/kg) or 2 (15 mg/kg) was used in this study. At 26 h after inoculation, animals were euthanized by CO2 asphyxiation before the muscle of the right thigh was harvested from each test animal. The removed muscle was homogenized in 5 mL of PBS, pH 7.4, with a polytron homogenizer. Homogenates in the amount of 0.1 mL were used for serial tenfold dilutions and plated onto a nutrient agar medium for colony count (c.f.u./g) determination.

[9] = LPS binding by isothermal titration calorimetry; set-up: species or system Escherichia coli; details: ITC
Method: Microcalorimetric experiments of peptide binding to LPS were performed on an MCS isothermal titration calorimeter (ITC) (Microcal, Northampton, Mass.) at 37° C. LPS was prepared as a 50 μM aqueous suspension in 20 mM HEPES (pH 7.0) buffer by suspension, sonication and temperature cycling between 5° C. and 70° C. This suspension was stored at 4° C. overnight prior to use. 100 μM peptide solutions (brevicidine and polymyxin B) were prepared in the same buffer and all solutions were degassed prior to use by stirring under vacuum for 5 min at 37° C. After thermal equilibration, 5 μL aliquots of the peptide solution were added every 3 min into the lipid-containing cell at 37° C. and stirred constantly. The change in heat during the titration steps was registered in real time and raw data were processed using the Origin® 7 software provided with the instrument. In control experiments, the corresponding peptide solution (or LPS solution) was injected into the buffer without LPS (or without peptide).

[10] = system: E. coli Top10; test: Time-kill assay; assay type: cell-based, Escherichia coli
Method: An overnight culture of E. coli Top10 or Pseudomonas aeruginosa PAO1 cells was diluted 1:10,000 in MHB and incubated at 37° C. with agitation at 180 rpm for 2 h (early exponential). The bacteria were then challenged with antibiotics at 10×MIC, brevicidine (20 μg/ml), laterocidine (20 μg/ml) or polymyxin B (10 μg/ml) at room temperature without shaking. An untreated sample of cells was used as a negative control. At intervals, 10 μL aliquots were removed, centrifuged at 10,000 g for 1 min and resuspended in 1.0 mL of sterile PBS. Tenfold-serially-diluted suspensions were plated on MHB agar plates and incubated at 37° C. overnight. Colonies were counted and the number of c.fu. per mL was calculated. For analysis of lysis, 300 μL of culture (OD600=1.0) were treated with 10×MIC of antibiotics for 24 h. Experiments were performed in triplicate.

[11] = system: E. cloacae NRRL-B-425; assay type: cell-based, Enterobacter cloacae; details: NRRL-B-425
Method: as §2

[12] = system: Saccharomyces cerevisiae VL-48; test: MIC, Saccharomyces cerevisiae; assay type: cell-based
Method: as §2

Structure (SMILES): CCC(C)CCC(=O)N[C@H](CC(N)=O)C(=O)N[C@H](Cc1ccc(O)cc1)C(=O)N[C@H](Cc1c[nH]c2ccccc12)C(=O)N[C@H](CCCN)C(=O)N[C@@H](CCCN)C(=O)NCC(=O)N[C@H](CCCN)C(=O)N[C@@H](Cc1c[nH]c2ccccc12)C(=O)N[C@@H]1C(=O)N[C@@H]([C@@H](C)CC)C(=O)NCC(=O)N[C@H](CO)C(=O)O[C@@H]1C (stereo partly drawn) [Compound 1, 4-Methyl-Hexanoyl-D-Asn-D-Tyr-D-Trp-D-Orn-Orn-Gly-D-Orn-Trp-Thr-Ile-Gly-Ser (cyclized via lactone formation between Thr and the C-terminus)] ({Hexanoyl(4ξ-Me)}-[dN][dY][dW][dOrn][Orn]G[dOrn]WTIG[dS]; ester 9-C)
- cell morphology by AFM [1]: lost their regular rod-like shape and became lumpy and rugged
- development of resistance [2]: development of resistance was not observed
- MIC [3]: 4 µg/mL (≈ 2.63 µM)
- MIC [4]: 2 µg/mL (≈ 1.32 µM)
- MIC Ec [4]: 2 µg/mL (≈ 1.32 µM)
- cell morphology by AFM [5]: lost their regular rod-like shape and became lumpy and rugged
- MIC [6]: 2 µg/mL (≈ 1.32 µM)
- MIC [7]: 2 µg/mL (≈ 1.32 µM)
- bactericidal efficacy in mouse thigh infection (viable bacteria) ([8]; brevicidine 30 mg/kg or laterocidine 15 mg/kg, 2 times, after 26 h): reduced numbers of viable bacteria
- reduction of c.fu. in thigh compared to the vehicle control ([8]; mice, 30 mg/kg subcutaneously, two doses, at 24 h): 5 log10
- Kd ([9]; 37° C., read-out: dissociation constant Kd for LPS): 6.5 µM
- binding to LPS ([9]; FIGS. 18a-18b): strong binding to LPS
- time of exposure to significant reduction of viable cells ([10]; 10 times the MIC): 30 min
- time of exposure to slightly reduced cell viability ([10]; 10 times the MIC): 15 min
- bactericidal against E. coli ([10]; growth kinetics, time-kill assay and lysis assay): bactericidal
- MIC [11]: 2 µg/mL (≈ 1.32 µM)
- MIC ([12]; Saccharomyces cerevisiae): >64 µg/mL
- MIC Sc ([12]; Table 2, Saccharomyces cerevisiae VL-48): ND (ND >64 μg/ml)
